Reference: patent publication US7846959B2, “Raf modulators and methods of use” (Exelixis, Inc., priority 2004, dated 2010)

What was measured:
[1] = molecular target: B-Raf (Homo sapiens, UniProt P15056); assay: Luciferase-coupled chemiluminescence kinase assay (ATP consumption), B-Raf; assay type: biochemical; conditions: read-out: bRaf (inhibition indicated as IC50)
In short: (§1)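 ATP depletion, limited to 25-60%, read by luciferase-luciferin chemiluminescence gives IC50 values. Before the 3 hr ambient-temperature kinase reaction with ATP, compound and […] enzyme were preincubated 30 minutes at room temperature in Tris pH 7.5 buffer with MgCl2, TX-100 and DTT.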

[2] = molecular target: c-Raf (Homo sapiens, UniProt P04049); assay: Luciferase-coupled chemiluminescence kinase assay (ATP consumption), c-Raf; assay type: biochemical; conditions: read-out: cRaf-1 (inhibition indicated as IC50)
Sequence of c-Raf (P04049 whole entry): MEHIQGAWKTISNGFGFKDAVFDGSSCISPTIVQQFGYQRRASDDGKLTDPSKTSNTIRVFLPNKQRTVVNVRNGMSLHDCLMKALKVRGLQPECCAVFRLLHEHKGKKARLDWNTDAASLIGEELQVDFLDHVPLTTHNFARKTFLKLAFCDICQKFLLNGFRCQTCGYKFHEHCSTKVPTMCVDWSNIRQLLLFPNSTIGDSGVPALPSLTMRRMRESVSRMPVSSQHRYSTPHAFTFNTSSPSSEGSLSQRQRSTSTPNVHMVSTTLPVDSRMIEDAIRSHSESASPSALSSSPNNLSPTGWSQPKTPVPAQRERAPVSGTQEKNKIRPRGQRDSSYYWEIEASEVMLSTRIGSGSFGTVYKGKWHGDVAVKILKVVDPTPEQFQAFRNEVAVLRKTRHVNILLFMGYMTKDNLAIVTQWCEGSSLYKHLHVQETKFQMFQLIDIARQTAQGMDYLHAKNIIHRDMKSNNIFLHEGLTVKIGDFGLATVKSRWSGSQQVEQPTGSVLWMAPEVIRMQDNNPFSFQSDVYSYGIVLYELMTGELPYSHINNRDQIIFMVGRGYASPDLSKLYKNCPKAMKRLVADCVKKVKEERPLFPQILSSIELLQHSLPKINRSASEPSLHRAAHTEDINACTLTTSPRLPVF
In short: as §1

Sequence of B-Raf (P15056 whole entry): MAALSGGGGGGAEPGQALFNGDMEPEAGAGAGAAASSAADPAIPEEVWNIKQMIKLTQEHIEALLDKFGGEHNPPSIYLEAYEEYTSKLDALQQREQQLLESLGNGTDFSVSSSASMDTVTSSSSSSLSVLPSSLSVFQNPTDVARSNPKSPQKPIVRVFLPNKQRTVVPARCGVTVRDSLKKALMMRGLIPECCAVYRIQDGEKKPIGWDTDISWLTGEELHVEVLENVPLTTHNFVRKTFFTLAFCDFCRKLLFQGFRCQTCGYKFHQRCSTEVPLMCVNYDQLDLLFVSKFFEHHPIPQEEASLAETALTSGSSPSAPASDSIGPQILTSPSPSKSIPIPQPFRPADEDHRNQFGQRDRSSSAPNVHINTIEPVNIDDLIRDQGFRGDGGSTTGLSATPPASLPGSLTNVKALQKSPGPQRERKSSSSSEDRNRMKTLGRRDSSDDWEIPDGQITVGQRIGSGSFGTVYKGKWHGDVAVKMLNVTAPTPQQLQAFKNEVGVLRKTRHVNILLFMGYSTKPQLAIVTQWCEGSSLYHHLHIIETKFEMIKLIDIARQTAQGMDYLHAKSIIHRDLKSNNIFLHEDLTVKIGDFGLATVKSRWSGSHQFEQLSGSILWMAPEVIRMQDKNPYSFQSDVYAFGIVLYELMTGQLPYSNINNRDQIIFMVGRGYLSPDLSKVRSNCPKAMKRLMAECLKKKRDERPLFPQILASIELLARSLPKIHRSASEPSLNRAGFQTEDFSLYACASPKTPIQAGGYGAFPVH

| Compound | IC50 [1] [nM] | IC50 [2] [nM] |
| --- | --- | --- |
| COC(=O)Nc1nc2cc(C3(O)c4ccccc4C(=O)N3c3cccc(I)c3F)ccc2[nH]1 (stereo not shown) [Entry 362, methyl {5-[2-(2-fluoro-3-iodophenyl)-1-hydroxy-3-oxo-2,3-dihydro-1H-isoindol-1-yl]-1H-benzimidazol-2-yl}carbamate] | < 100 | < 100 |
| COC(=O)Nc1nc2cc(C3(O)c4ccccc4C(=O)N3c3cc(C)ccc3C)ccc2[nH]1 (stereo not shown) [Entry 365, methyl {5-[2-(2,5-dimethylphenyl)-1-hydroxy-3-oxo-2,3-dihydro-1H-isoindol-1-yl]-1H-benzimidazol-2-yl}carbamate] | < 100 | < 100 |
| C#Cc1cccc(N2C(=O)c3cccc(F)c3C2(O)c2ccc3[nH]c(NC(=O)OC)nc3c2)c1F (stereo not shown) [Entry 369, methyl {5-[2-(3-ethynyl-2-fluorophenyl)-7-fluoro-1-hydroxy-3-oxo-2,3-dihydro-1H-isoindol-1-yl]-1H-benzimidazol-2-yl}carbamate] | < 100 | < 100 |
| CC#Cc1cccc(N2C(=O)c3ccccc3C2(O)c2ccc3[nH]c(NC(=O)OC)nc3c2)c1F (stereo not shown) [Entry 370, methyl {5-[2-(2-fluoro-3-prop-1-yn-1-ylphenyl)-1-hydroxy-3-oxo-2,3-dihydro-1H-isoindol-1-yl]-1H-benzimidazol-2-yl}carbamate] | 100 to 1000 | 100 to 1000 |
| COC(=O)Nc1nc2ccc(C3(O)c4c(F)ccc(F)c4C(=O)N3c3cc(Cl)ccc3C)cc2[nH]1 (stereo not shown) [Entry 376, methyl {6-[2-(5-chloro-2-methylphenyl)-4,7-difluoro-1-hydroxy-3-oxo-2,3-dihydro-1H-isoindol-1-yl]-1H-benzimidazol-2-yl}carbamate] | < 100 | < 100 |
| COC(=O)Nc1nc2cc(C3(O)c4ccccc4C(=O)N3c3cc(OC)ccc3F)ccc2[nH]1 (stereo not shown) [Entry 381, methyl (5-{2-[2-fluoro-5-(methyloxy)phenyl]-1-hydroxy-3-oxo-2,3-dihydro-1H-isoindol-1-yl}-1H-benzimidazol-2-yl)carbamate] | < 100 | < 100 |
| COC(=O)Nc1nc2cc(C3(O)c4ccccc4C(=O)N3c3cc(C)ccc3OC)ccc2[nH]1 (stereo not shown) [Entry 382, methyl (5-{1-hydroxy-2-[5-methyl-2-(methyloxy)phenyl]-3-oxo-2,3-dihydro-1H-isoindol-1-yl}-1H-benzimidazol-2-yl)carbamate] | < 100 | < 100 |
| C#Cc1cc(C)cc(N2C(=O)c3ccccc3C2(O)c2ccc3[nH]c(NC(=O)OC)nc3c2)c1 (stereo not shown) [Entry 383, methyl {5-[2-(3-ethynyl-5-methylphenyl)-1-hydroxy-3-oxo-2,3-dihydro-1H-isoindol-1-yl]-1H-benzimidazol-2-yl}carbamate] | < 100 | < 100 |
| O=C1c2ccccc2C(O)(c2ccc3[nH]c(Nc4ncc(Cl)cn4)nc3c2)N1c1cccc(Cl)c1F (stereo not shown) [Entry 384, 2-(3-chloro-2-fluorophenyl)-3-{2-[(5-chloropyrimidin-2-yl)amino]-1H-benzimidazol-5-yl}-3-hydroxy-2,3-dihydro-1H-isoindol-1-one] | < 100 | < 100 |
| Cc1ccnc(Nc2nc3cc(C4(O)c5ccccc5C(=O)N4c4cccc(Cl)c4F)ccc3[nH]2)n1 (stereo not shown) [Entry 385, 2-(3-chloro-2-fluorophenyl)-3-hydroxy-3-{2-[(4-methylpyrimidin-2-yl)amino]-1H-benzimidazol-5-yl}-2,3-dihydro-1H-isoindol-1-one] | < 100 | < 100 |
| COc1cc(C)nc(Nc2nc3cc(C4(O)c5ccccc5C(=O)N4c4cccc(Cl)c4F)ccc3[nH]2)n1 (stereo not shown) [Entry 387, 2-(3-chloro-2-fluorophenyl)-3-hydroxy-3-(2-{[4-methyl-6-(methyloxy)pyrimidin-2-yl]amino}-1H-benzimidazol-5-yl)-2,3-dihydro-1H-isoindol-1-one] | < 100 | < 100 |
| Cc1cccc(N2C(=O)c3ccccc3C2(O)c2ccc3nc(Nc4cnccn4)[nH]c3c2)c1 (stereo not shown) [Entry 388, 3-hydroxy-2-(3-methylphenyl)-3-[2-(pyrazin-2-ylamino)-1H-benzimidazol-6-yl]-2,3-dihydro-1H-isoindol-1-one] | < 100 | < 100 |
| COC(=O)Nc1nc2ccc(C3(O)c4ccccc4C(=O)N3c3cccc(C)c3F)cc2[nH]1 (stereo not shown) [Entry 390, methyl {6-[2-(2-fluoro-3-methylphenyl)-1-hydroxy-3-oxo-2,3-dihydro-1H-isoindol-1-yl]-1H-benzimidazol-2-yl}carbamate] | < 100 | < 100 |

Continued, values first:

| IC50 [1] [nM] | IC50 [2] [nM] | Compound |
| --- | --- | --- |
| < 100 | < 100 | C#Cc1ccc(F)c(N2C(=O)c3ccccc3C2(O)c2ccc3nc(NC(=O)OC)[nH]c3c2)c1 (stereo not shown) [Entry 363, methyl {6-[2-(5-ethynyl-2-fluorophenyl)-1-hydroxy-3-oxo-2,3-dihydro-1H-isoindol-1-yl]-1H-benzimidazol-2-yl}carbamate] |
| < 100 | < 100 | C#Cc1cccc(N2C(=O)c3ccccc3C2(O)c2ccc3[nH]c(Nc4ncccn4)nc3c2)c1F (stereo not shown) [Entry 364, 2-(3-ethynyl-2-fluorophenyl)-3-hydroxy-3-[2-(pyrimidin-2-ylamino)-1H-benzimidazol-5-yl]-2,3-dihydro-1H-isoindol-1-one] |
| < 100 | < 100 | C=Cc1cccc(N2C(=O)c3ccccc3C2(O)c2ccc3[nH]c(NC(=O)OC)nc3c2)c1F (stereo not shown) [Entry 366, methyl {5-[2-(3-ethenyl-2-fluorophenyl)-1-hydroxy-3-oxo-2,3-dihydro-1H-isoindol-1-yl]-1H-benzimidazol-2-yl}carbamate] |
| < 100 | 100 to 1000 | COC(=O)Nc1nc2ccc(C3(O)c4ccccc4C(=O)N3c3cccc(OC)c3F)cc2[nH]1 (stereo not shown) [Entry 367, methyl (6-{2-[2-fluoro-3-(methyloxy)phenyl]-1-hydroxy-3-oxo-2,3-dihydro-1H-isoindol-1-yl}-1H-benzimidazol-2-yl)carbamate] |
| < 100 | < 100 | COC(=O)Nc1nc2cc(C3(O)c4ccccc4C(=O)N3c3cc(OC)ccc3C)ccc2[nH]1 (stereo not shown) [Entry 368, methyl (5-{1-hydroxy-2-[2-methyl-5-(methyloxy)phenyl]-3-oxo-2,3-dihydro-1H-isoindol-1-yl}-1H-benzimidazol-2-yl)carbamate] |
| < 100 | < 100 | COC(=O)Nc1nc2cc(C3(O)c4c(F)cccc4C(=O)N3c3cc(Cl)ccc3C)ccc2[nH]1 (stereo not shown) [Entry 371, methyl {5-[2-(5-chloro-2-methylphenyl)-7-fluoro-1-hydroxy-3-oxo-2,3-dihydro-1H-isoindol-1-yl]-1H-benzimidazol-2-yl}carbamate] |
| < 100 | < 100 | C#Cc1cccc(N2C(=O)c3ccccc3C2(O)c2ccc3[nH]c(NC(=O)OC)nc3c2)c1C (stereo not shown) [Entry 372, methyl {5-[2-(3-ethynyl-2-methylphenyl)-1-hydroxy-3-oxo-2,3-dihydro-1H-isoindol-1-yl]-1H-benzimidazol-2-yl}carbamate] |
| < 100 | < 100 | COc1cccc(N2C(=O)c3ccccc3C2(O)c2ccc3nc(Nc4ncccn4)[nH]c3c2)c1 (stereo not shown) [Entry 373, 3-hydroxy-2-[3-(methyloxy)phenyl]-3-[2-(pyrimidin-2-ylamino)-1H-benzimidazol-6-yl]-2,3-dihydro-1H-isoindol-1-one] |
| < 100 | < 100 | Cc1cccc(N2C(=O)c3ccccc3C2(O)c2ccc3nc(Nc4ncccn4)[nH]c3c2)c1 (stereo not shown) [Entry 374, 3-hydroxy-2-(3-methylphenyl)-3-[2-(pyrimidin-2-ylamino)-1H-benzimidazol-6-yl]-2,3-dihydro-1H-isoindol-1-one] |
| < 100 | < 100 | Cc1ccc(Cl)cc1N1C(=O)c2ccccc2C1(O)c1ccc2nc(Nc3ncccn3)[nH]c2c1 (stereo not shown) [Entry 375, 2-(5-chloro-2-methylphenyl)-3-hydroxy-3-[2-(pyrimidin-2-ylamino)-1H-benzimidazol-6-yl]-2,3-dihydro-1H-isoindol-1-one] |
| < 100 | < 100 | C#Cc1cccc(N2C(=O)c3ccccc3C2c2ccc3[nH]c(NC(=O)OC)nc3c2)c1F (stereo not shown) [Entry 377, methyl {5-[2-(3-ethynyl-2-fluorophenyl)-3-oxo-2,3-dihydro-1H-isoindol-1-yl]-1H-benzimidazol-2-yl}carbamate] |
| 100 to 1000 | 100 to 1000 | O=C1c2ccccc2C(O)(c2ccc3[nH]c(Nc4ccc(Cl)nn4)nc3c2)N1c1cccc(Cl)c1F (stereo not shown) [Entry 378, 2-(3-chloro-2-fluorophenyl)-3-{2-[(6-chloropyridazin-3-yl)amino]-1H-benzimidazol-5-yl}-3-hydroxy-2,3-dihydro-1H-isoindol-1-one] |
| < 100 | < 100 | O=C1c2c(F)ccc(F)c2C(O)(c2ccc3[nH]c(Nc4ncccn4)nc3c2)N1c1cccc(Cl)c1F (stereo not shown) [Entry 379, 2-(3-chloro-2-fluorophenyl)-4,7-difluoro-3-hydroxy-3-[2-(pyrimidin-2-ylamino)-1H-benzimidazol-5-yl]-2,3-dihydro-1H-isoindol-1-one] |
| < 100 | < 100 | COC(=O)Nc1nc2cc(C3(O)c4ccccc4C(=O)N3c3cc(C)ccc3F)ccc2[nH]1 (stereo not shown) [Entry 380, methyl {5-[2-(2-fluoro-5-methylphenyl)-1-hydroxy-3-oxo-2,3-dihydro-1H-isoindol-1-yl]-1H-benzimidazol-2-yl}carbamate] |
| < 100 | < 100 | COc1cc(OC)nc(Nc2nc3cc(C4(O)c5ccccc5C(=O)N4c4cccc(Cl)c4F)ccc3[nH]2)n1 (stereo not shown) [Entry 386, 3-(2-{[4,6-bis(methyloxy)pyrimidin-2-yl]amino}-1H-benzimidazol-5-yl)-2-(3-chloro-2-fluorophenyl)-3-hydroxy-2,3-dihydro-1H-isoindol-1-one] |
| < 100 | < 100 | Cc1ccc(Cl)cc1N1C(=O)c2ccccc2C1(O)c1ccc2nc(Nc3cnccn3)[nH]c2c1 (stereo not shown) [Entry 389, 2-(5-chloro-2-methylphenyl)-3-hydroxy-3-[2-(pyrazin-2-ylamino)-1H-benzimidazol-6-yl]-2,3-dihydro-1H-isoindol-1-one] |
